Patent US20220235049A1, “SUBSTITUTED PYRROLO [2, 3-b] PYRIDINE AND PYRAZOLO [3,4-b] PYRIDINE DERIVATIVES AS PROTEIN KINASE INHIBITORS” (Fochon Pharmaceuticals, Ltd., priority 2019, published 2022)
pIC50: −log10 of the molar value. Read-outs that look alike come from different tables or passages of the source.

Assays:
BTK (C481S) = molecular target: T1, BTK (C481S) (Homo sapiens, UniProt Q06187, C481S); test: Kinase assay of BTK (C481S), [33P]-ATP filter-binding, at Reaction Biology Corporation; assay type: biochemical; settings: 10 μM ATP, 20 min preincubation, 120 min reaction
T1 construct: purchased SignalChem B10-12CH
T1 sequence (Q06187 whole entry C481S): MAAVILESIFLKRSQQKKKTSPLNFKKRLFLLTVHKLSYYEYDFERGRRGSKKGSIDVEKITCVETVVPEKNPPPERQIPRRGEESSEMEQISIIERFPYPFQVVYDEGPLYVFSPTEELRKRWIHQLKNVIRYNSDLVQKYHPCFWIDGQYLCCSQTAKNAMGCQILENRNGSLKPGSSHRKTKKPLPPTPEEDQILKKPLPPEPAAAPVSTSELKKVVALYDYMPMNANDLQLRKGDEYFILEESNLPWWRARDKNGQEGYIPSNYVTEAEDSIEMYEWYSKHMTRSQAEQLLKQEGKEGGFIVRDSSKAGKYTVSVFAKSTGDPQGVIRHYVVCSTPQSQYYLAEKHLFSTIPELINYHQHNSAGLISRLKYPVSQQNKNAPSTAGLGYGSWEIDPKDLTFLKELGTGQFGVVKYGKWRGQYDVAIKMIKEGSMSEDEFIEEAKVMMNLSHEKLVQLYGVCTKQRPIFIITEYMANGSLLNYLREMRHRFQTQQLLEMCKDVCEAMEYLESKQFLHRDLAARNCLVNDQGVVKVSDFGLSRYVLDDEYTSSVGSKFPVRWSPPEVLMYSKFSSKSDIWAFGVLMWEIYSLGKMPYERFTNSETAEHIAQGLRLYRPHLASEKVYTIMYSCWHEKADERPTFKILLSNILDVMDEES
Protocol: The kinase activity of BTK (C481S) was assayed at Reaction Biology Corporation. The substrate in the BTK (C481S) reaction, pEY (poly[Glu:Tyr] (4:1)) (Sigma, Cat. #P7244-250MG), was prepared in fresh reaction buffer (20 mM Hepes (pH 7.5), 10 mM MgCl2, 1 mM EGTA, 0.02% Brij35, 0.02 mg/ml BSA, 0.1 mM Na3VO4, 2 mM DTT, 1% DMSO). BTK(C481S) (SignalChem, Cat. #B10-12CH) was delivered into the substrate solution and mixed gently. The final concentrations of BTK (C481S) and the substrate in the reaction mixture were 6 nM and 0.2 mg/ml, respectively. Compounds were tested in 10-point concentration/response mode with 3-fold serial dilution steps starting at 1 μM.
Compounds in 100% DMSO were delivered into the kinase reaction mixture by acoustic liquid delivery technology (Echo550; nanoliter range) and incubated for 20 min at room temperature. 10 μM [^33P]-ATP (ATP: Sigma, Cat #: A7699; [^33P]-ATP: Hartmann Analytic, Cat #: SCF-301-12) was delivered into the reaction mixture to initiate the reaction. The mixture was incubated for 120 min at room temperature. Radioactivity was detected utilizing a proprietary filter-binding method. Kinase activity data were expressed as the percent remaining kinase activity in test samples compared to vehicle (DMSO) reactions. IC50 values were obtained using GraphPad Prism software.
Select compounds prepared as described above were assayed according to the biological procedures described herein.

DOHH2 cells = test: Cell proliferation assay in DOHH2 cells (MTS); assay type: cell-based; settings: Homo sapiens, DOHH-2, 120 h
In short: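 DOHH2 cells at 5000/well were treated with compound at 1.5–10000 nM for 120 h at 37 °C, as a proxy for BTK inhibition. Proliferation was read by MTS for 2 h, stopped with SDS, and absorbance measured at 490 nm with 650 nm reference; IC50 was fitted from the curve.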

[1] = Pharmacokinetics in male Sprague-Dawley rats; assay type: in vivo; settings: rat; for AUC(0-inf) / AUC(0-t) / clearance / half-life / Cmax / MRT last / Vd / Tmax: male, Sprague-Dawley, plasma; for Cmax: read-out: Cmax/C0; for MRT last: read-out: MRT0-t; for Vd: read-out: Vdss
Protocol: The purpose of this study was to determine the pharmacokinetics of Example 71 and Example 75 in male Sprague-Dawley rats (Supplied by Beijing Vital River Laboratory Animal Technology Co., Ltd.).
Animals in Group 1 were administered with Example 71 by single intravenous bolus injection at 1 mg/kg, which was formulated in 60% Phosal 50 PG (Lipoid, Batch #368315-3180028/009): 30% PEG400 (Sigma, Batch #MKCH6281): 10% Ethanol (Merck, Batch #K48244883634) at 1 mg/mL as a solution. Animals in Group 2 were administered with Example 71 by single oral gavage (PO) administration at 5 mg/kg, which was formulated in 60% Phosal 50 PG (Lipoid, Batch #368315-3180028/009): 30% PEG400 (Sigma, Batch #MKCH6281): 10% Ethanol (Merck, Batch #K48244883634) at 1 mg/mL as a solution. Blood samples were collected at 0.083, 0.25, 0.5, 1, 2, 4, 8, 12 and 24 hours post-dose. Concentrations of Example 71 in plasma were determined by LC/MS/MS (LC: Waters UPLC; MS: API4000).
Animals in Group 3 were administered with Example 75 by single intravenous bolus injection at 2 mg/kg, which was formulated in 10% DMSO (Sigma, Batch #LPC0S181): 60% PEG400 (Sigma, Batch #MKCH6281): 30% water at 2 mg/mL as a solution. Animals in Group 4 were administered with Example 75 by single oral gavage (PO) administration at 10 mg/kg, which was formulated in 10% DMSO (Sigma, Batch #LPC0S181): 60% PEG400 (Sigma, Batch #MKCH6281): 30% water at 2 mg/mL as a solution. Blood samples were collected at 0.083, 0.25, 0.5, 1, 2, 4, 8, 12 and 24 hours post-dose. Concentrations of Example 75 in plasma were determined by LC/MS/MS (LC: Waters UPLC; MS: Triple Quad 6500 plus).

For `CCOc1cnc2[nH]cc(C(=O)c3ccc(Oc4ccccc4)cc3F)c2c1N[C@@H]1CC[C@@H](CO)OC1` [Example 176, (5-ethoxy-4-(((3R,6S)-6-(hydroxymethyl)tetrahydro-2H-pyran-3-yl)amino)-1H-pyrrolo[2,3-b]pyridin-3-yl)(2-fluoro-4-phenoxyphenyl)methanone], the pIC50 (BTK (C481S)) was 9.34 and the pIC50 (DOHH2 cells) was 9.00.
With `CCOc1cnc2[nH]cc(C(=O)c3ccc(Oc4ccccc4)cc3Cl)c2c1N[C@@H]1CC[C@@H](CO)OC1` [Example 128, (2-chloro-4-phenoxyphenyl)(5-ethoxy-4-(((3R,6S)-6-(hydroxymethyl)tetrahydro-2H-pyran-3-yl)amino)-1H-pyrrolo[2,3-b]pyridin-3-yl)methanone] the pIC50 (BTK (C481S)) was 9.01 and the pIC50 (DOHH2 cells) was 9.00.
`O=C(c1ccc(Oc2ccccc2)cc1Cl)c1c[nH]c2nccc(N[C@@H]3CC[C@@H](CO)OC3)c12` [Example 2, (2-Chloro-4-phenoxyphenyl)(4-(((3R,6S)-6-(hydroxymethyl)tetrahydro-2H-pyran-3-yl)amino)-1H-pyrrolo[2,3-b]pyridin-3-yl)methanone] gave a pIC50 (BTK (C481S)) of 8.65 and a pIC50 (DOHH2 cells) of 7.59.
Work on `COc1cnc2[nH]cc(C(=O)c3ccc(Oc4ccccc4)cc3Cl)c2c1N[C@@H]1CC[C@@H](CO)OC1` [Example 27, (2-chloro-4-phenoxyphenyl)(4-(((3R,6S)-6-(hydroxymethyl)tetrahydro-2H-pyran-3-yl)amino)-5-methoxy-1H-pyrrolo[2,3-b]pyridin-3-yl)methanone] yielded a pIC50 (BTK (C481S)) of 8.95 and a pIC50 (DOHH2 cells) of 9.00.
`CCOc1cnc2[nH]cc(C(=O)c3ccc(Oc4ccccc4F)cc3F)c2c1N[C@@H]1CC[C@@H](CO)OC1` [Example 71, (5-ethoxy-4-(((3R,6S)-6-(hydroxymethyl)tetrahydro-2H-pyran-3-yl)amino)-1H-pyrrolo[2,3-b]pyridin-3-yl)(2-fluoro-4-(2-fluorophenoxy)phenyl)methanone] showed a pIC50 (BTK (C481S)) of 9.11, a pIC50 (DOHH2 cells) of 9.00 and an AUC(0-inf) ([1]; iv, 1 mg/kg) of 3770 ng·h/mL. The AUC(0-t) ([1]; iv, 1 mg/kg) was 3760 ng·h/mL, the clearance ([1]; iv, 1 mg/kg) was 4.7 mL/min/kg and the half-life ([1]; iv, 1 mg/kg) was 3.07 h. It also gave a Cmax ([1]; iv, 1 mg/kg) of 4360 ng/mL, an MRT last ([1]; iv, 1 mg/kg) of 1.93 h and a Vd ([1]; iv, 1 mg/kg) of 0.541 L/kg. The AUC(0-inf) ([1]; po, 5 mg/kg) was 10100 ng·h/mL, the AUC(0-t) ([1]; po, 5 mg/kg) was 10100 ng·h/mL and the Tmax ([1]; po, 5 mg/kg) was 4 h. For the same molecule, the half-life ([1]; po, 5 mg/kg) was 2.74 h, the Cmax ([1]; po, 5 mg/kg) was 1680 ng/mL and the MRT last ([1]; po, 5 mg/kg) was 5.26 h. It also gave an F ([1]; po 5 mg/kg vs iv 1 mg/kg) of 53.7%.
For `CCOc1cnc2[nH]cc(C(=O)c3ccc(Oc4ccccc4F)cc3)c2c1N[C@@H]1CC[C@@H](CO)OC1` [Example 63, (5-ethoxy-4-(((3R,6S)-6-(hydroxymethyl)tetrahydro-2H-pyran-3-yl)amino)-1H-pyrrolo[2,3-b]pyridin-3-yl)(4-(2-fluorophenoxy)phenyl)methanone], the pIC50 (BTK (C481S)) was 9.00 and the pIC50 (DOHH2 cells) was 9.00.
`COc1cnc2[nH]cc(C(=O)c3ccc(Oc4ccccc4F)cc3F)c2c1N[C@@H]1CC[C@@H](CO)OC1` [Example 75, (2-fluoro-4-(2-fluorophenoxy)phenyl)(4-(((3R,6S)-6-(hydroxymethyl)tetrahydro-2H-pyran-3-yl)amino)-5-methoxy-1H-pyrrolo[2,3-b]pyridin-3-yl)methanone] showed a pIC50 (DOHH2 cells) of 9.00, an AUC(0-inf) ([1]; iv, 2 mg/kg) of 10200 ng·h/mL and an AUC(0-t) ([1]; iv, 2 mg/kg) of 10100 ng·h/mL. The clearance ([1]; iv, 2 mg/kg) was 3.33 mL/min/kg, the half-life ([1]; iv, 2 mg/kg) was 2.56 h and the Cmax ([1]; iv, 2 mg/kg) was 6350 ng/mL. For the same molecule, the MRT last ([1]; iv, 2 mg/kg) was 2.43 h, the Vd ([1]; iv, 2 mg/kg) was 0.489 L/kg and the AUC(0-inf) ([1]; po, 10 mg/kg) was 29000 ng·h/mL. The AUC(0-t) ([1]; po, 10 mg/kg) was 28900 ng·h/mL, the Tmax ([1]; po, 10 mg/kg) was 2.83 h and the half-life ([1]; po, 10 mg/kg) was 2.8 h. It also gave a Cmax ([1]; po, 10 mg/kg) of 4140 ng/mL, an MRT last ([1]; po, 10 mg/kg) of 5.58 h and an F ([1]; po 10 mg/kg vs iv 2 mg/kg) of 57.1%.
In the case of `CCOc1cnc2[nH]cc(C(=O)c3ccc(Oc4ccccc4)cc3C)c2c1N[C@@H]1CC[C@@H](CO)OC1` [Example 127, (5-ethoxy-4-(((3R,6S)-6-(hydroxymethyl)tetrahydro-2H-pyran-3-yl)amino)-1H-pyrrolo[2,3-b]pyridin-3-yl)(2-methyl-4-phenoxyphenyl)methanone], the pIC50 (BTK (C481S)) was 9.02 and the pIC50 (DOHH2 cells) was 9.00.
